The values that follow come from patent publication US20040191241A1, “Antigen with haptenic mannitol epitopes and a method of preparing antibodies specific to D-mannitol” (COUNCIL OF SCIENTIFIC AND INDUSTRIAL RESEARCH, priority 2003, published 2004).

Test [1] deals with hapten affinity-purified D-mannitol-specific antibody. The test is described as follows: ELISA inhibition: specificity and cross-reactivity of the hapten affinity-purified antibody, D-mannitol-KLH coated wells. It counts as binding, rabbit. The note with it: for Inhibition in ELISA (in words): comparison among inhibitors; for IC50: read-out: IC50 (concentration required for 50% inhibition in ELISA). Here is the method: FIG. 5 depicts specificity of the purified D-mannitol-specific antibody determined by ELISA inhibition. D-Mannitol-KLH conjugate (10 ng/well) was used for coating. The purified antibody (at 1:100 dilution) was preincubated with various inhibitors at different concentrations at 37° C. for 1 h before adding to the coated wells.
FIG. 6 depicts stereo specificity of the purified D-mannitol-specific antibody determined by ELISA inhibition. As L-mannitol is not available commercially, L-mannitol-BSA conjugate (prepared using L-mannose) was used as inhibitor and the inhibition was compared with that of D-mannitol-BSA conjugate.
To check for the formation of hapten-specific antibodies the antiserum was analyzed by non-competitive ELISA using the coated antigen format. The titer of the antiserum was determined by measuring the binding of serial dilutions of antiserum to coated mannitol-KLH conjugate. Flat bottom polystyrene microtiter wells were coated with mannitol-KLH conjugate at 1000, 100, 50, 10, and 1 ng per well in carbonate-bicarbonate buffer, pH 9.6 by incubating at 4° C. overnight. The wells were washed thrice between steps using PBS containing 0.05% Tween 20 (PBS-T). Blocking was done using 0.5% gelatin in PBS-T (blocking buffer) at 37° C. for 30 min. Antiserum diluted in blocking buffer (1:10, 1:100, 1:1000, 1:10000, 1:25000, 1:50000, 1:75000; 1:100000, 1:200000, 1:400000) was added (100 μL/well) and incubated at 37° C. for 2 h. Mouse anti-rabbit IgG-alkaline phoshatase secondary antibody (1:5000 dilution in blocking buffer, 100 μL/well) was added and incubated at 37° C. for 1 h. Color development was done using p-nitrophenyl phosphate (1 mg/mL, 100 μL/well) in diethanolamine buffer, pH 9.8, at 37° C. for 30 min. The reaction was stopped by adding 3 M NaOH (40 μL/well) and the absorbance at 405 nm was read in an ELISA reader.
The hapten affinity-purified D-mannitol-specific antibody was used for ELISA experiments to obtain the binding curves using D-mannitol-KLH conjugate for coating, and to study the specificity and cross-reactivity by ELISA inhibition experiments. Here, purified antibody was preincubated with various concentrations of inhibitors at 37° C. for 1 h before adding to coated microtiter wells. Other steps were as described under ‘Titration of antiserum’. Percent cross-reactivity for various inhibitors was calculated using the formula: […]
Background: ELISA stands for enzyme-linked immunosorbent assay.

In test [2] the test system is mannitol-specific mast cell-bound human IgE. The test is described as follows: Skin prick test (SPT) in an allergic subject sensitized to mannitol. It counts as in vivo. The note with it: for Wheal diameter / Flare diameter: SPT, free compounds at 0.1%; for Wheal diameter: first figure of wheal/flare; for Flare diameter: second figure of wheal/flare. From the text:
A D-mannitol-BSA and D-mannitol-KLH conjugate was used for skin prick test (SPT) in a mannitol-allergic subject, after obtaining Institutional Ethics Committee (IEC) clearance, and informed consent. D-Mannitol and its conjugates with BSA and KLH produced positive test whereas, D-mannose and control BSA and control KLH gave negative test (Table 2). L-Mannitol BSA conjugate was negative in SPT. All these samples were negative in SPT in 10 normal subjects.

Setting [3] is: (IC50 for D-mannitol ÷ IC50 for test compound) × 100.
Where [4] appears, read: free sugars/sugar alcohols as competitor, D-mannitol-KLH 10 ng/well coating, antibody 1:100, preincubated 37° C. 1 h.

Where two headings read alike, the source gives them in different places.

As to `OC[C@@H](O)[C@@H](O)[C@H](O)[C@@H](O)CO` [D-Glucitol], the Percent cross-reactivity in test [1] (setting [3]) is recorded as 8.8%; in test [1] ((IC50 for D-mannitol ÷ IC50 for test compound) × 100, listed as D-glucitol (sorbitol)), approximately 9%. Besides, the “Inhibition in ELISA (in words)” value in test [1] is “higher compared to that by meso-erythritol and D-mannose”. Further, the IC50 in test [1] (setting [4]) amounted to 60 mM.

In test [1] (setting [3]), `OC[C@@H](O)[C@@H](O)[C@H](O)[C@H](O)CO` [D-Mannitol] gave a Percent cross-reactivity of 100.0%. In addition, the “Inhibition in ELISA (in words)” value in test [1] is reported as “maximum inhibition”. Besides, the IC50 in test [1] (setting [4]) came out at 5.25 mM. In test [2], the “SPT result (positive/negative)” value was “positive”, the Wheal diameter is given as 5 mm and the Flare diameter came out at 25 mm.

Molecule `O=C[C@@H](O)[C@@H](O)[C@H](O)[C@H](O)CO` [D-Mannose] gave a Percent cross-reactivity in test [1] (setting [3]) of 4.9%. In test [2], the “SPT result (positive/negative)” value is recorded as “negative”, the Wheal diameter worked out at 1 mm and the Flare diameter is 0 mm.

Consider `NCCc1c[nH]cn1` [Histamine base], for which, in test [2], the Wheal diameter was 6 mm and the Flare diameter is 30 mm.

Take `NCCCC[C@H](N)C(=O)O` [L-lysine]: the Percent cross-reactivity in test [1] (setting [3]) was 2%.

Take `OCC(O)C(O)CO` (stereo not drawn) [meso-Erythritol]: in test [1] (setting [3]), the Percent cross-reactivity came to 4.9%.

On to “Control BSA: BSA incubated under the conjugation conditions, excluding D-mannose”, for which, in test [2], the “SPT result (positive/negative)” value was “negative”, the Wheal diameter is listed as 1 mm and the Flare diameter worked out at 0 mm.

As for “N-(1-deoxy-D-mannitol-1-yl)n-carrier [D-Mannitol-BSA conjugate]”, the IC50 in test [1] (BSA conjugates as inhibitor (stereospecificity, FIG. 6)) is 0.00064 mM. In test [1] (conjugate inhibitors, relative to D-mannitol-BSA conjugate), this molecule showed a Percent cross-reactivity of 100.00%. Moreover, in test [2], the “SPT result (positive/negative)” value is “positive”, the Wheal diameter turned out to be 4 mm and the Flare diameter was 30 mm.

For the molecule “N-(1-deoxy-D-mannitol-1-yl)n-carrier [D-Mannitol-KLH conjugate]”, in test [2], the “SPT result (positive/negative)” value is recorded as “positive”, the Wheal diameter was 4 mm and the Flare diameter was 25 mm.
